Source: US20040033483A1, “Cell diagnosing method, and device and apparatus use for it” (priority 2001, published 2004)

Assays:
[1] = test system: normal cells prepared from the fundus of rat stomach; test: Electrical signal of cells on the cell diagnosis device on applying Carbachol, normal cells; type: cell-based
Procedure: (§1) A cell diagnosis apparatus comprising the device shown in FIG. 3 as a measuring section (signal source) 101, which has a configuration shown in FIG. 4, was used. Normal cells and cancer cells were prepared as samples from the fundus of rat stomach. The apparatus was used to measure the action of a chemical substance, Carbachol, on these samples.
Carbachol is a chemical substance known as an analog of the neurotransmitter Acetylcholine. Carbachol (manufactured by Sigma) was dissolved in Krebs Ringer solution to concentrations of 0, 0.1, 0.3, 1, 3 10, 30 and 100 μM. The solutions having these concentrations were used to measure an electrical signal when each solution was applied to the normal cells and the cancer cells derived from the fundus of stomach. For each Carbachol concentration, time-series signal values for 10 seconds were obtained from the measuring section (signal source) 101 comprising the cell diagnosis device shown in FIG. 3, and was sampled at intervals of 100 msec to obtain time-series data, and the standard deviation of the sampling data was calculated. […]
(§2) Before and after 50 μM-concentration Carbachol was applied to the normal cells and the cancer cells prepared from the fundus of rat stomach, signals were obtained from the measuring section (signal source) 101, and the standard deviation of the signals was calculated in a manner similar to that of Example 1.

[2] = test system: cancer cells prepared from the fundus of rat stomach; test: Electrical signal of cells on the cell diagnosis device on applying Carbachol, cancer cells; type: cell-based
Procedure: as §1
Carbachol is a chemical substance known as an analog of the neurotransmitter Acetylcholine. Carbachol (manufactured by Sigma) was dissolved in Krebs Ringer solution to concentrations of 0, 0.1, 0.3, 1, 3 10, 30 and 100 μM. The solutions having these concentrations were used to measure an electrical signal when each solution was applied to the normal cells and the cancer cells derived from the fundus of stomach. For each Carbachol concentration, time-series signal values for 10 seconds were obtained from the measuring section (signal source) 101 comprising the cell diagnosis device shown in FIG. 3, and was sampled at intervals of 100 msec to obtain time-series data, and the standard deviation of the sampling data was calculated. The average of the standard deviation was plotted in FIG. 8. In FIG. 8, black circles indicate results obtained from cells including cancer cells and white circles indicate results obtain from normal cells.
The apparatus having the configuration shown in FIG. 5, which comprises the device shown in FIG. 3 as a measuring section (signal source), was used to measure the action of Carbachol on samples, where the samples were normal cells and cells including cancer cells prepared from the fundus of rat stomach, as in Example 1.
as §2

[3] = 50 μM Carbachol, before versus after application, 10 seconds, FIG. 9
[4] = Carbachol 0, 0.1, 0.3, 1, 3, 10, 30 and 100 μM in Krebs Ringer solution, 10 seconds signal, FIG. 8

## C[N+](C)(C)CCOC(N)=O [Carbachol]
[1]; [3]
  average of the standard deviation every 5 msec after applying Carbachol: increased
[1]; [4]
  average of the standard deviation of the electrical signal at 100 msec intervals: the higher the Carbachol concentration, the higher the average of the standard deviation
[2]; 50 μM Carbachol, FIG. 9
  average and half-width of the normal distribution of standard deviations compared with the normal cell: larger average and half-width values than those of the normal cell
[2]; [3]
  average of the standard deviation every 5 msec after applying Carbachol: increased
[2]; [4]
  average of the standard deviation of the electrical signal at 100 msec intervals: the higher the Carbachol concentration, the higher the average of the standard deviation
